In the test the target is T1, Jarid1B (Homo sapiens, UniProt Q9UGL1).
T1 construct: purchased BPS Bioscience (or custom made by MolecularThroughput) 50121
T1 sequence (Q9UGL1 2-751): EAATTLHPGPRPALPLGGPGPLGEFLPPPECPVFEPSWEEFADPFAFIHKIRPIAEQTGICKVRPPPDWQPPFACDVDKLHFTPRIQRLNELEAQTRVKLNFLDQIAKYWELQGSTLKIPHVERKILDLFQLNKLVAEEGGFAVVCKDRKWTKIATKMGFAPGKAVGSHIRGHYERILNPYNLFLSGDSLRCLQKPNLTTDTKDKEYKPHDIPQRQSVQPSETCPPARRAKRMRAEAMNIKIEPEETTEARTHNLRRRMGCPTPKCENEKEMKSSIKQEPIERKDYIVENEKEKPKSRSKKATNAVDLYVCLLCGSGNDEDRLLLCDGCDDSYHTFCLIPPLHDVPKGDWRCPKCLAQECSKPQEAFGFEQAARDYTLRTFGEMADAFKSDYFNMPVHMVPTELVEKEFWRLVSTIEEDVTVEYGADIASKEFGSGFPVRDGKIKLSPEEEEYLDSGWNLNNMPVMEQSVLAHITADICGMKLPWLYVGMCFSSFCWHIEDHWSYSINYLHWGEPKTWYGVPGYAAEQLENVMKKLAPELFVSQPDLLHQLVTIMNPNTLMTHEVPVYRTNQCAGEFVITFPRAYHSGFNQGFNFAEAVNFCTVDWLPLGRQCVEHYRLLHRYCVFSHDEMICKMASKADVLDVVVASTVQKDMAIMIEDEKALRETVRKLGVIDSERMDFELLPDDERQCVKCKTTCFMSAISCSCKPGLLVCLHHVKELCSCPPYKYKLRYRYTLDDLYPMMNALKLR
Nature of the test: Jarid1B in vitro enzyme inhibition assay (TR-FRET). In kind it is biochemical. The following applies: 0.8 nM Jarid1B, 300 nM H3K4me3-biotin peptide, 2 μM alpha-ketoglutaric acid. The text has this: This assay determines the ability of a test compound to inhibit Jarid1B, JMJD2C and JMJD3 demethylase activity. Baculovirus-expressed Jarid1B (GenBank Accession # NM-006618, AA 2-751) was purchased from BPS Bioscience (Cat #50121) or custom made by MolecularThroughput. Baculovirus-expressed JMJD2C (GenBank Accession # BC143571, AA 2-372) was purchased from BPS Bioscience (Cat #50105). Baculovirus-expressed JMJD3 (GenBank Accession # NM_001080424, AA1043-end) was purchased from BPS Bioscience (Cat #50115).
The ability of test compounds to inhibit the activity of Jarid1B was determined in 384-well plate format under the following reaction conditions: 0.8 nM Jarid1B, 300 nM H3K4me3-biotin labeled peptide (Anaspec cat #64357), 2 μM alpha-ketoglutaric acid in assay buffer of 50 mM HEPES, pH 7.3, 0.005% Brij35, 0.5 mM TCEP, 0.2 mg/ml BSA, 50 μM sodium L-ascorbate, and […] ammonium ironII sulfate. Reaction product was determined quantitatively by TR-FRET after the addition of detection reagent Phycolink Streptavidin-allophycocyanin (Prozyme) and Europium-anti-mono-or di-methylated historic H3 lysine 4 (H3K4me1-2) antibody (PerkinElmer) in the presence of 5 mM EDTA in LANCE detection buffer (PerkinElmer) at a final concentration of 25 nM and 1 nM, respectively.
The assay reaction was initiated by the following: 2 μl of the mixture of 900 nM H3K4me3-biotin labeled peptide and 6 μM alpha-ketoglutaric acid with 2 μl of 11-point serial diluted inhibitor in 3% DMSO was added to each well of the plate, followed by the addition of 2 μl of 2.4 nM Jarid1B to initiate the reaction. […] Plates were read by EnVisionMultilabel Reader in TR-FRET mode (excitation at 320 nm, emission at 615 nm and 665 nm) after 1 hr incubation at room temp. A ratio was calculated (665/615) for each well and fitted to determine inhibition constant (IC50).
The ability to inhibit demethylase activity was quantified and the respective IC50 value was determined for substituted triazolylpyridine derivative compounds. […]

As for `Fc1cnccc1-c1nn[nH]c1C(F)(F)F` [Example 1, 3-fluoro-4-[5-(trifluoromethyl)-1H-1,2,3-triazol-4-yl]pyridine], the 50% inhibitory concentration (IC50) is > 10 µM.

Turning to `Fc1ccc(Cl)cc1Nc1cnccc1-c1nn[nH]c1C(F)(F)F` [Example 2, N-(5-chloro-2-fluorophenyl)-4-[5-(trifluoromethyl)-1H-1,2,3-triazol-4-yl]pyridin-3-amine], the IC50 is > 10 µM.

Turning to `FC(F)(F)c1[nH]nnc1-c1ccncc1NCC1CCCc2ccccc21` (stereo not drawn) [Example 3, N-[(1,2,3,4-tetrahydronaphthalen-1-yl)methyl]-4-[5-(trifluoromethyl)-1H-1,2,3-triazol-4-yl]pyridine-3-amine], the IC50 was > 10 µM.

Source of the values: US10870634B2, “Histone demethylase inhibitors” (CELGENE QUANTICEL RESEARCH, INC., priority 2016, dated 2020).
